Calls of active or inactive are those of the source.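 The calls were made as follows: active = fitted half-maximal concentration for changing background-corrected GFP signal at or below a set limit; inactive = the rest.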
Tests used:
[1] = test system: S. cerevisiae MEP2-GFP strain, flow cytometry fluorescence, 3 h; assay: TOR pathway reporter MEP2-GFP, concentration series – S. cerevisiae, flow cytometry GFP, MLPCN hits, dose response (AID 2742);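 as to EC50: curve fit on GFP signal minus compound signal in parental s288c strain lacking GFP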;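 as to GFP fluorescence (kMESF), higher = increase: GFP tag reports level of MEP2 protein as a downstream target of TOR signalling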
[2] = as above; settings: S. cerevisiae MEP2-GFP strain, flow cytometry fluorescence, 3 h; at 33 µM (top of the series)

Structure (SMILES): O=C(Oc1ccnc2cc(Cl)ccc12)N1CCCCCC1
- EC50 [1]: 3860 nM

Structure (SMILES): O=C1NC(=O)N(Cc2ccc(F)cc2)C(=O)/C1=C/c1cccs1
- EC50 [1]: 3010 nM

Structure (SMILES): Nc1ccc(Br)c2c1C(=O)c1ccccc1C2=O
- EC50 [1]: 1040 nM

Structure (SMILES): CCOC(=O)COc1ccc2ccccc2c1/C=C/[N+](=O)[O-]
- EC50 [1]: 12700 nM

Structure (SMILES): Cc1ccc(/C=C/C(=O)c2ccccc(=O)c2O)c(C)c1
- EC50 [1]: 13700 nM

Structure (SMILES): CNc1nc(N)c([N+](=O)[O-])c(Nc2cccc(F)c2)n1
- EC50 [1]: 6850 nM

Structure (SMILES): O=C1NC(=O)C(=Cc2ccc(-c3ccc(Cl)cc3)o2)C(=O)N1
- EC50 [1]: 1380 nM

Structure (SMILES): CNC(CC(=O)c1ccc([N+](=O)[O-])cc1)C(Cl)(Cl)Cl (stereo unspecified)
- EC50 [1]: 2280 nM

Structure (SMILES): CCCCCCCCn1sccc1=O
- EC50 [1]: 1230 nM

Structure (SMILES): CC1(C)C[C@H]2C=C(C=O)[C@]3(C=O)C[C@]3(C)[C@H]2C1
- EC50 [1]: 1260 nM

Structure (SMILES): C[C@@H]1C[C@@H]([C@H](O)CC2CC(=O)NC(=O)C2)C(=O)[C@@H](C)C1
- GFP fluorescence (kMESF), higher = increase [2]: 3.27 kMESF (inactive)

Structure (SMILES): O=C1c2cccc3c([N+](=O)[O-])ccc(c23)C(=O)N1CCc1ccccn1
- GFP fluorescence (kMESF), higher = increase [2]: 5.48 kMESF (inactive)

Structure (SMILES): O=C1c2ccccc2C(=O)C2OC12 (stereo unspecified)
- GFP fluorescence (kMESF), higher = increase [2]: 3.37 kMESF (inactive)

Structure (SMILES): Oc1c(C(Nc2cccc(C(F)(F)F)c2)c2ccncc2)ccc2cccnc12 (stereo unspecified)
- GFP fluorescence (kMESF), higher = increase [2]: 4.71 kMESF (inactive)

Structure (SMILES): O=[N+]([O-])c1cc(CN2CCN(c3cccc(C(F)(F)F)c3)CC2)c2cccnc2c1O
- GFP fluorescence (kMESF), higher = increase [2]: 4.44 kMESF (inactive)

Structure (SMILES): O=C(Oc1oc(-c2ccco2)nc1C=Nc1ccccc1)c1ccco1
- GFP fluorescence (kMESF), higher = increase [2]: 4.57 kMESF (inactive)

Structure (SMILES): N=C1/C(=C\c2coc3ccccc3c2=O)C(=O)N=C2SC(c3ccncc3)=NN12
- GFP fluorescence (kMESF), higher = increase [2]: -3.13 kMESF (inactive)

Structure (SMILES): O=C(CCS(=O)(=O)c1ccccc1)Nc1nc(-c2ccccn2)cs1
- GFP fluorescence (kMESF), higher = increase [2]: 1.34 kMESF (inactive)

Structure (SMILES): CS(=O)(=O)N1N=C(c2ccccc2)CC1c1ccc2c(c1)OCO2 (stereo unspecified)
- GFP fluorescence (kMESF), higher = increase [2]: 78.8 kMESF (inactive)

Structure (SMILES): O=C1N(c2ccccc2C(F)(F)F)O[C@]1(c1ccccc1)C1CCCC1
- GFP fluorescence (kMESF), higher = increase [2]: 2.4 kMESF (inactive)

Structure (SMILES): Oc1c(C(Nc2nc3ccccc3s2)c2ccco2)ccc2cccnc12 (stereo unspecified)
- GFP fluorescence (kMESF), higher = increase [2]: 5.51 kMESF (inactive)

Structure (SMILES): CC1(C(=O)NC(=S)NNC(=O)c2ccncc2)CCCCC1
- GFP fluorescence (kMESF), higher = increase [2]: 3.51 kMESF (inactive)

Structure (SMILES): N/C(Cc1ccc(Cl)c(Cl)c1)=N\OC(=O)c1cccs1
- GFP fluorescence (kMESF), higher = increase [2]: 3.66 kMESF (inactive)

Structure (SMILES): Cc1ccc2nc(/C(C#N)=C/c3ccc(O)c(O)c3)[nH]c2c1
- GFP fluorescence (kMESF), higher = increase [2]: 4.49 kMESF (inactive)

Structure (SMILES): Cc1nn(C)c(C)c1N1C(=O)c2cccc3c(Br)ccc(c23)C1=O
- GFP fluorescence (kMESF), higher = increase [2]: 3.61 kMESF (inactive)

Structure (SMILES): COc1cccc(/C=N/Nc2ccc([N+](=O)[O-])cn2)c1O
- GFP fluorescence (kMESF), higher = increase [2]: 3.24 kMESF (inactive)

Structure (SMILES): Cc1ccc(NN2C(=O)C=C(c3ccc(Cl)cc3)C2=O)cc1
- GFP fluorescence (kMESF), higher = increase [2]: 4.9 kMESF (inactive)

Structure (SMILES): CC(Oc1ccc(Br)cc1)C(=O)Nc1nc(-c2ccccn2)cs1 (stereo unspecified)
- GFP fluorescence (kMESF), higher = increase [2]: 4.68 kMESF (inactive)

Structure (SMILES): O=c1oc2ccccc2c(O)c1[C@H]1c2ccc(O)cc2Oc2c1c(=O)oc1ccccc21
- GFP fluorescence (kMESF), higher = increase [2]: 4.67 kMESF (inactive)

Structure (SMILES): O=C(/C=C/c1cc(Br)ccc1O)c1ccco1
- GFP fluorescence (kMESF), higher = increase [2]: 6.67 kMESF (inactive)

Structure (SMILES): CCCOc1ccc(C(=O)NNC(=S)NC(=O)c2ccccc2)cc1
- GFP fluorescence (kMESF), higher = increase [2]: 4.61 kMESF (inactive)

Structure (SMILES): COc1ccccc1OCCCc1c(C)n[nH]c1C
- GFP fluorescence (kMESF), higher = increase [2]: 3.47 kMESF (inactive)

Structure (SMILES): N/C(=N\OC(=O)c1cc(Br)ccc1Cl)c1ccccn1
- GFP fluorescence (kMESF), higher = increase [2]: 5.31 kMESF (inactive)

Structure (SMILES): C#CCOCCOCCOCCNc1nc(N2CCN(C(=O)CCCCCCCCCCNC(=O)[C@H](CCCCN)n3cc(C)nn3)CC2)nc(N2CCN(C(=O)CCCCCCCCCCNC(=O)[C@H](CCCN=C(N)N)n3cc(C[C@@H](C)CC)nn3)CC2)n1
- GFP fluorescence (kMESF), higher = increase [2]: 3.34 kMESF (inactive)

Structure (SMILES): C=CCOc1cccc(C(=O)/C=C2/C(=O)Nc3ccccc32)c1
- GFP fluorescence (kMESF), higher = increase [2]: 3.41 kMESF (inactive)

Structure (SMILES): CN(C)c1ccc(N=Cc2nc(-c3ccccc3)oc2OC(=O)c2ccccc2)cc1
- GFP fluorescence (kMESF), higher = increase [2]: 3.17 kMESF (inactive)

Structure (SMILES): O=C(Nc1ccc(Cl)cc1)ON=C1CCCC1
- GFP fluorescence (kMESF), higher = increase [2]: 4.17 kMESF (inactive)

Structure (SMILES): Cc1cc(O)c(C(=O)/C=C/c2c(F)c(F)c(F)c(F)c2F)c(=O)o1
- GFP fluorescence (kMESF), higher = increase [2]: 0.99 kMESF (inactive)

Structure (SMILES): CC(Oc1cc2oc(=O)c3c(c2cc1Cl)CCC3)C(=O)NCCN1CCOCC1 (stereo unspecified)
- GFP fluorescence (kMESF), higher = increase [2]: 2.37 kMESF (inactive)

Structure (SMILES): COc1ccc(C(=O)/C=C2/C(=O)Nc3ccccc32)c(OC)c1
- GFP fluorescence (kMESF), higher = increase [2]: 3.34 kMESF (inactive)

Structure (SMILES): O=c1cc(CSc2ccc(Cl)cc2)nc(-c2ccccn2)[nH]1
- GFP fluorescence (kMESF), higher = increase [2]: 3.46 kMESF (inactive)

Structure (SMILES): CC(OC(=O)c1ccco1)C(=O)Nc1nc(-c2ccccc2)cs1 (stereo unspecified)
- GFP fluorescence (kMESF), higher = increase [2]: 2.67 kMESF (inactive)

Structure (SMILES): Cn1ncc(S(=O)(=O)Cc2ccccc2)c(Cl)c1=O
- GFP fluorescence (kMESF), higher = increase [2]: 4.57 kMESF (inactive)

Structure (SMILES): O=C(Nc1ccc(N2CCOCC2)cc1)C1CCN(S(=O)(=O)c2ccc3c(c2)OCCO3)CC1
- GFP fluorescence (kMESF), higher = increase [2]: 2 kMESF (inactive)

Structure (SMILES): CCCCC(=O)NNC(=S)NC(=O)c1ccc(C)cc1
- GFP fluorescence (kMESF), higher = increase [2]: 4.34 kMESF (inactive)

Structure (SMILES): COc1ccc(C(=O)/C=C2/C(=O)Nc3ccccc32)cc1OC
- GFP fluorescence (kMESF), higher = increase [2]: 2.25 kMESF (inactive)

Structure (SMILES): Cc1ccc(N2C(=O)C(Cl)=C(Nc3c(C)n(C)n(-c4ccccc4)c3=O)C2=O)cc1
- GFP fluorescence (kMESF), higher = increase [2]: 1.97 kMESF (inactive)

Structure (SMILES): CCOC(=O)CSC1=NC(=O)/C(=C\c2ccc(Cl)cc2)S1
- GFP fluorescence (kMESF), higher = increase [2]: 4.12 kMESF (inactive)

Structure (SMILES): Cc1ccc(C(c2cc(Cl)c3cccnc3c2O)N2CCN(C)CC2)cc1 (stereo unspecified)
- GFP fluorescence (kMESF), higher = increase [2]: 3.22 kMESF (inactive)

Structure (SMILES): Cc1ccc(NC(=O)c2ccc(Cl)c(N3C(=O)C=CC3=O)c2)cc1
- GFP fluorescence (kMESF), higher = increase [2]: 5.91 kMESF (inactive)

Structure (SMILES): CCCCOc1ccc(C(=O)NNC(=S)NC(=O)CC)cc1
- GFP fluorescence (kMESF), higher = increase [2]: 6.17 kMESF (inactive)

Structure (SMILES): COc1ccc(-c2cc(C(F)(F)F)nc(S(C)(=O)=O)n2)cc1
- GFP fluorescence (kMESF), higher = increase [2]: 5.2 kMESF (inactive)

Structure (SMILES): Cc1ccc(/C=C2/C(=O)ON=C2c2ccccc2)o1
- GFP fluorescence (kMESF), higher = increase [2]: 3.11 kMESF (inactive)

Structure (SMILES): COc1ccc(N=Cc2nc(-c3ccccc3)oc2OC(=O)c2ccccc2)cc1
- GFP fluorescence (kMESF), higher = increase [2]: 2.68 kMESF (inactive)

Structure (SMILES): COc1cc(/C=C/[N+](=O)[O-])ccc1O
- GFP fluorescence (kMESF), higher = increase [2]: 3.88 kMESF (inactive)

Structure (SMILES): COC(=O)c1cc(N2C(=O)C3C(C2=O)C2(C)C=CC3(C)O2)ccc1Cl (stereo unspecified)
- GFP fluorescence (kMESF), higher = increase [2]: 4.8 kMESF (inactive)

— PubChem BioAssay AID2742 (NMMLSC, 2010)
